Experimental data: patent US20260232827A1, “ANTIBODY-DRUG CONJUGATES TARGETING NAPI2B AND METHODS OF USE” (Zymeworks BC Inc., priority 2023, published 2026)

Assays:
Assay in all cases: In vitro cytotoxicity of camptothecin analogues (CellTiter-Glo)
Assay type in all cases: cell-based
Calu-3 (lung cancer) = details: Homo sapiens, Calu-3, 96 h, read-out: pIC50 Calu-3 (converted)
Procedure: (§1) Cytotoxicity of the camptothecin analogues was assessed in vitro as follows.
(§2) In vitro potency was assessed on multiple cancer cell lines: SK-BR-3 (breast cancer), SKOV-3 (ovarian cancer), Calu-3 (lung cancer), ZR-75-1 (breast cancer) and MDA-MB-468 (breast cancer). Serial dilutions of camptothecin analogues were prepared in RPMI 1640+10% FBS, and 20 μL of each dilution was added to 384-well plates. Cells cultured in log-phase growth were detached by brief incubation in 0.05% Trypsin and resuspended in respective culturing media at 20,000 cells/mL (with the exception of ZR-75 cells, which were resuspended at 10,000 cells/mL). 50 μL of cell suspension was then added to the plates containing test articles. Cells were incubated with test articles for 4 d at 37° C. (with the exception of ZR-75 cells, which were incubated for 5 d). Growth inhibition was assessed by CellTiter-Glo® (Promega Corporation, Madison, WI) and luminescence was measured on a plate reader. IC50 values were determined by GraphPad Prism (GraphPad Software, San Diego CA).

[1] = tested on: MDA-MB-468 (breast cancer); details: Homo sapiens, MDA-MB-468, 96 h, read-out: pIC50 MDA-MB-468 (converted)
Procedure: as §1, §2

SK-BR-3 (breast cancer) = details: Homo sapiens, SK-BR-3, 96 h, read-out: pIC50 SKBR-3 (converted)
Procedure: as §1, §2

SKOV-3 (ovarian cancer) = details: Homo sapiens, SK-OV-3, 96 h, read-out: pIC50 SKOV-3 (converted)
Procedure: as §1, §2

ZR-75-1 (breast cancer) = details: Homo sapiens, ZR-75-1, 120 h, read-out: pIC50 ZR-75 (converted)
Procedure: as §1, §2

Compound	IC50 (Calu-3 (lung cancer))	IC50 [1]	IC50 (SK-BR-3 (breast cancer))	IC50 (SKOV-3 (ovarian cancer))	IC50 (ZR-75-1 (breast cancer))
CC[C@@]1(O)C(=O)OCc2c1cc1n(c2=O)Cc2c-1nc1cc(F)c(C)cc1c2CNS(C)(=O)=O [Compound 122, (S)-N-((4-ethyl-8-fluoro-4-hydroxy-9-methyl-3,14-dioxo-3,4,12,14-tetrahydro-1H-pyrano[3′,4′:6,7]indolizino[1,2-b]quinolin-11-yl)methyl)methanesulfonamide]	3.72 nM	1.1 nM	1.12 nM	9.12 nM	1.29 nM
CC[C@@]1(O)C(=O)OCc2c1cc1n(c2=O)Cc2c-1nc1cc(F)c(C)cc1c2CNS(N)(=O)=O [Compound 131, (S)-((4-ethyl-8-fluoro-4-hydroxy-9-methyl-3,14-dioxo-3,4,12,14-tetrahydro-1H-pyrano[3′,4′:6,7]indolizino[1,2-b]quinolin-11-yl)methyl)sulfamide]	9.12 nM	9.12 nM	1.05 nM		0.955 nM
CC[C@@]1(O)C(=O)OCc2c1cc1n(c2=O)Cc2c-1nc1cc(F)c(C)cc1c2CNS(=O)(=O)c1ccccc1 [Compound 125, (S)-N-((4-ethyl-8-fluoro-4-hydroxy-9-methyl-3,14-dioxo-3,4,12,14-tetrahydro-1H-pyrano[3′,4′:6,7]indolizino[1,2-b]quinolin-11-yl)methyl)benzenesulfonamide]	2.82 nM	3.8 nM	1.32 nM	7.08 nM	1.32 nM
CC[C@@]1(O)C(=O)OCc2c1cc1n(c2=O)Cc2c-1nc1cc(F)c(C)cc1c2CN1C2CCC1(CO)CC2 [Compound 121]	0.145 nM	0.269 nM	0.148 nM	0.195 nM	
CC[C@@]1(O)C(=O)OCc2c1cc1n(c2=O)Cc2c-1nc1cc(F)c(C)cc1c2CNS(=O)(=O)c1ccc(N)cc1 [Compound 127, (S)-4-amino-N-((4-ethyl-8-fluoro-4-hydroxy-9-methyl-3,14-dioxo-3,4,12,14-tetrahydro-1H-pyrano[3′,4′:6,7]indolizino[1,2-b]quinolin-11-yl)methyl)benzenesulfonamide]	9.33 nM	3.8 nM	3.31 nM	14.5 nM	5.25 nM
CC[C@@]1(O)C(=O)OCc2c1cc1n(c2=O)Cc2c-1nc1cc(F)c(OC)cc1c2CNS(=O)(=O)c1ccc(N)cc1 [Compound 128, (S)-4-amino-N-((4-ethyl-8-fluoro-4-hydroxy-9-methoxy-3,14-dioxo-3,4,12,14-tetrahydro-1H-pyrano[3′,4′:6,7]indolizino[1,2-b]quinolin-11-yl)methyl)benzenesulfonamide]		8.32 nM	5.25 nM	18.2 nM	4.27 nM
CC[C@@]1(O)C(=O)OCc2c1cc1n(c2=O)Cc2c-1nc1cc(F)c(C)cc1c2CN1CCSCC1CO (stereo partly drawn) [Compound 114, (4S)-4-ethyl-8-fluoro-4-hydroxy-11-((3-(hydroxymethyl)thiomorpholino)methyl)-9-methyl-1,12-dihydro-14H-pyrano[3′,4′:6,7]indolizino[1,2-b]quinoline-3,14(4H)-dione]	0.0933 nM	0.417 nM	0.107 nM	0.178 nM	
CC[C@@]1(O)C(=O)OCc2c1cc1n(c2=O)Cc2c-1nc1cc(F)c(OC)cc1c2CNC(=O)NCc1ccc(N)cc1 [Compound 135, (S)-1-(4-aminobenzyl)-3-((4-ethyl-8-fluoro-4-hydroxy-9-methoxy-3,14-dioxo-3,4,12,14-tetrahydro-1/- pyrano[3′,4′:6,7]indolizino[1,2-b]quinolin-11-yl)methyl)urea]		10.7 nM	12.3 nM		13.2 nM
CC[C@@]1(O)C(=O)OCc2c1cc1n(c2=O)Cc2c-1nc1cc(F)c(N)cc1c2CN=[N+]=[N-] [Compound 152, (S)-9-amino-11-(azidomethyl)-4-ethyl-8-fluoro-4-hydroxy-1,12-dihydro-14H-pyrano[3′,4′:6,7]indolizino[1,2-b]quinoline-3,14(4H)-dione]	1.48 nM	5.01 nM	3.24 nM	2.88 nM	
